Laboratory results taken from patent US7118692B2, “Substituted thienothiophene monomers and conducting polymers” (priority 2004, dated 2006).

Columns and labels:
[1] = toxicity testing, oral LD50; details: in vivo
[2] = toxicity testing, dermal LD50; details: in vivo, topical or ocular
[3] = solubility of monomer in solvents; type: physicochemical; details: wide variety of solvents
Text: The tert-butyl substituted thienothiophenes and their conjugated oligomers and polymers show better properties compared to their hydrogen, decyl and phenyl analogs.

| SMILES | LD50 [1] [mg/kg] | LD50 [2] [mg/kg] | solubility in solvents [3] |
| --- | --- | --- | --- |
| c1cc2cscc2s1 [Thieno[3,4-b]thiophene] | 50 | 200 to 400 |  |
| c1ccc(-c2cc3cscc3s2)cc1 [2-phenyl-thieno[3,4-b]thiophene] |  |  | only sparingly soluble |
| CC(C)(C)c1cc2cscc2s1 [2-tert-butyl-thieno[3,4-b]thiophene] | > 500 | > 400 | readily soluble in a wide variety of solvents |
